Target: MAPK14 (human) (UniProt Q16539)
Experiment: Inhibition of MAPK14 Kinase Activity

Chain of MAPK14 (human) (Q16539 whole entry, looked up): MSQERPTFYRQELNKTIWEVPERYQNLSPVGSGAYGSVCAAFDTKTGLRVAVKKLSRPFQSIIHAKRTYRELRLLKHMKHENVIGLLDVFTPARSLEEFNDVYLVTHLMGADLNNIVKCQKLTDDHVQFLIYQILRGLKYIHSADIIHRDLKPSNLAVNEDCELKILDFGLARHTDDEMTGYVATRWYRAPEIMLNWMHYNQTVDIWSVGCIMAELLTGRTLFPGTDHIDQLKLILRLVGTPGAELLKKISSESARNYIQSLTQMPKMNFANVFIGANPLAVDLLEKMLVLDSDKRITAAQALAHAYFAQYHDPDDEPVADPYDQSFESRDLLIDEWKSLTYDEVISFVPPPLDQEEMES

SMILES	IC50
CN(C)[C@H]1CCN(C(=O)Nc2sc3c(ccc(=O)n3-c3ccccc3)c2C(=O)c2ccccc2)C1	< 2 µM
CC(C)N[C@H]1CCN(C(=O)Nc2sc3c(ccc(=O)n3-c3ccccc3)c2C(=O)c2ccccc2)C1	< 2 µM
CC(=O)Nc1sc2c(ccc(=O)n2-c2ccccc2)c1C(=O)c1ccc(F)cc1	< 2 µM
CN1CCC[C@H](Nc2sc3c(ccc(=O)n3-c3ccccc3)c2C(=O)c2ccccc2)C1	< 2 µM
NC1CCN(c2sc3c(ccc(=O)n3-c3ccccc3)c2C(=O)c2ccccc2)CC1	< 2 µM
Cc1cc(C(=O)c2c(NC3CN(C(C)C)C3)sc3c2ccc(=O)n3-c2ccccc2)ccc1F	< 2 µM
O=C(c1ccccc1)c1c(NCCN2CCCC2)sc2c1ccc(=O)n2-c1ccccc1	< 2 µM
O=C(c1ccccc1)c1c(N2CCOCC2)sc2c1ccc(=O)n2-c1ccccc1	< 2 µM
Cc1cc(C(=O)c2c(NC3CCNCC3)sc3c2ccc(=O)n3-c2ccccc2)ccc1F	< 2 µM
Cc1cc(C(=O)c2c(NC(=O)C3CCN(C)CC3)sc3c2ccc(=O)n3-c2ccccc2)ccc1F	< 2 µM
O=C(c1ccccc1)c1c(NC2CNC2)sc2c1ccc(=O)n2CC1CC1	< 2 µM
CCN1CCC(Nc2sc3c(ccc(=O)n3-c3ccccc3)c2C(=O)c2cccc(C)c2)CC1	< 2 µM
O=C(c1ccccc1)c1csc2c1ccc(=O)n2-c1ccccc1	< 2 µM
CC(=O)Nc1sc2c(ccc(=O)n2-c2ccccc2)c1C(=O)c1ccccc1C	< 2 µM
Cc1cc(C(=O)c2c(NC(=O)NCC(C)(C)O)sc3c2ccc(=O)n3CC2CC2)ccc1F	< 2 µM
CCN1CC(Nc2sc3c(ccc(=O)n3-c3ccccc3)c2C(=O)c2ccccc2)C1	< 2 µM
NC1CN(c2sc3c(ccc(=O)n3-c3ccccc3)c2C(=O)c2ccccc2)C1	< 2 µM
Cc1cc(C(=O)c2c(NC3CCN(C)CC3)sc3c2ccc(=O)n3-c2c(F)cccc2F)ccc1F	< 2 µM
O=C(c1ccccc1)c1c(N[C@H]2CCNC2)sc2c1ccc(=O)n2-c1ccccc1	< 2 µM
Cc1cc(C(=O)c2c(NC(=O)C3CCN(C)CC3)sc3c2ccc(=O)n3-c2c(F)cccc2F)ccc1F	< 2 µM
Cc1cc(C(=O)c2c(NC(=O)C3CCNCC3)sc3c2ccc(=O)n3-c2ccccc2F)ccc1F	< 2 µM

SMILES	IC50
NC(=O)CCNc1sc2c(ccc(=O)n2-c2ccccc2)c1C(=O)c1ccccc1	< 2 µM
O=C(c1ccccc1)c1c(NC2CNC2)sc2c1ccc(=O)n2-c1ccccc1	< 2 µM
CN1CC(Nc2sc3c(ccc(=O)n3-c3ccccc3)c2C(=O)c2ccccc2)C1	< 2 µM
O=C(O)c1sc2c(ccc(=O)n2-c2ccccc2)c1C(=O)c1ccccc1	< 2 µM
CN1CCC[C@@H](Nc2sc3c(ccc(=O)n3-c3ccccc3)c2C(=O)c2ccccc2)C1	< 2 µM
O=C(c1ccccc1)c1c(N[C@@H]2CCCNC2)sc2c1ccc(=O)n2-c1ccccc1	< 2 µM
CN1CC(Nc2sc3c(ccc(=O)n3CC3CC3)c2C(=O)c2ccccc2)C1	< 2 µM
CCN1CCC(NC(=O)Nc2sc3c(ccc(=O)n3-c3ccccc3)c2C(=O)c2cccc(C)c2)C1 (stereo not drawn)	< 2 µM
CN1CCN(C(=O)Nc2sc3c(ccc(=O)n3-c3ccccc3)c2C(=O)c2ccccc2)CC1	< 2 µM
CC(C)N1CCC(Nc2sc3c(ccc(=O)n3-c3ccccc3)c2C(=O)c2ccccc2)CC1	< 2 µM
Nc1sc2c(ccc(=O)n2-c2ccccc2)c1C(=O)c1ccccc1C(F)(F)F	< 2 µM
Cc1cc(C(=O)c2c(N)sc3c2ccc(=O)n3CC2CC2)ccc1F	< 2 µM
O=C(c1ccccc1)c1c(NCCN2CCCCC2)sc2c1ccc(=O)n2-c1ccccc1	< 2 µM
COc1ccccc1C(=O)c1c(NC(C)=O)sc2c1ccc(=O)n2-c1ccccc1	< 2 µM
Nc1sc2c(ccc(=O)n2CC2CC2)c1C(=O)c1ccccc1	< 2 µM
O=C(c1cccc(Cl)c1)c1c(NC(=O)C2CCNCC2)sc2c1ccc(=O)n2-c1ccccc1	< 2 µM
CN1CCC(C(=O)Nc2sc3c(ccc(=O)n3-c3ccccc3)c2C(=O)c2ccccc2)CC1	< 2 µM
Cc1cc(C(=O)c2c(NC(=O)N[C@@H]3CCN(C)C3)sc3c2ccc(=O)n3-c2ccccc2)ccc1F	< 2 µM
O=C(c1ccccc1)c1c(C(=O)N2CCC[C@H]2CO)sc2c1ccc(=O)n2-c1ccccc1	< 2 µM
Cc1ccc(-n2c(=O)ccc3c(C(=O)c4ccc(F)c(C)c4)c(NC4CNC4)sc32)cc1	< 2 µM
Cc1cc(C(=O)c2c(N[C@H]3CCN(C)C3)sc3c2ccc(=O)n3-c2ccccc2)ccc1F	< 2 µM

SMILES	IC50
CS(=O)(=O)Nc1sc2c(ccc(=O)n2-c2ccccc2)c1C(=O)c1ccccc1	< 2 µM
CN(C)C(=O)Nc1sc2c(ccc(=O)n2-c2ccccc2)c1C(=O)c1ccccc1	< 2 µM
Cc1ccc(-n2c(=O)ccc3c(C(=O)c4ccccc4)c(NC4CNC4)sc32)cc1	< 2 µM
CN1CCC(Nc2sc3c(ccc(=O)n3-c3ccccc3)c2C(=O)c2ccccc2)CC1	< 2 µM
CN1CC(CNc2sc3c(ccc(=O)n3-c3ccccc3)c2C(=O)c2ccccc2)C1	< 2 µM
N#Cc1sc2c(ccc(=O)n2-c2ccccc2)c1C(=O)c1ccccc1	< 2 µM
Cc1cc(C(=O)c2c(NC3CCN(C)CC3)sc3c2ccc(=O)n3-c2ccccc2)ccc1F	< 2 µM
CN(C)CC(C)(C)CNc1sc2c(ccc(=O)n2-c2ccccc2)c1C(=O)c1ccccc1	< 2 µM
O=C(c1ccccc1)c1c(NC2CCCNC2)sc2c1ccc(=O)n2-c1ccccc1 (stereo not drawn)	< 2 µM
Cc1cc(C(=O)c2c(NC(=O)N3CC[C@H](N(C)C)C3)sc3c2ccc(=O)n3-c2ccccc2)ccc1F	< 2 µM
Cc1ccc(-n2c(=O)ccc3c(C(=O)c4ccccc4)c(NC4CN(C)C4)sc32)cc1	< 2 µM
CC(C)N1CCC(Nc2sc3c(ccc(=O)n3-c3ccccc3)c2C(=O)c2ccccc2)C1 (stereo not drawn)	< 2 µM
O=C(c1ccccc1)c1c(NC(=O)C2CCNCC2)sc2c1ccc(=O)n2CC1CC1	< 2 µM
CN(C)c1sc2c(ccc(=O)n2-c2ccccc2)c1C(=O)c1ccccc1	< 2 µM
CC(C)(O)CNC(=O)Nc1sc2c(ccc(=O)n2CC2CC2)c1C(=O)c1ccccc1	< 2 µM
Nc1sc2c(ccc(=O)n2-c2ccccc2)c1C(=O)c1ccccc1OC(F)F	< 2 µM
Cc1cc(C(=O)c2c(NC(=O)NC(C)(C)CO)sc3c2ccc(=O)n3-c2ccccc2)ccc1F	< 2 µM
Cc1ccc(-n2c(=O)ccc3c(C(=O)c4ccc(F)c(C)c4)c(NC4CN(C)C4)sc32)cc1	< 2 µM
Cc1cc(C(=O)c2c(NC(=O)NC(C)(C)CO)sc3c2ccc(=O)n3CC2CC2)ccc1F	< 2 µM
CC(C)(CO)NC(=O)c1sc2c(ccc(=O)n2-c2ccccc2)c1C(=O)c1ccccc1	< 2 µM
CC(C)(O)CNC(=O)Nc1sc2c(ccc(=O)n2-c2ccccc2)c1C(=O)c1ccccc1	< 2 µM

Further lines, results first:

IC50	SMILES
< 2 µM	Cc1cccc(C(=O)c2c(N)sc3c2ccc(=O)n3-c2ccccc2F)c1
< 2 µM	COc1ccc(C(=O)c2c(N)sc3c2ccc(=O)n3-c2ccccc2)cc1
< 2 µM	CC(=O)Nc1sc2c(ccc(=O)n2-c2ccccc2)c1C(=O)c1cccc(F)c1
< 2 µM	COc1cccc(C(=O)c2c(NC(C)=O)sc3c2ccc(=O)n3-c2ccccc2)c1
< 2 µM	Cc1cccc(C(=O)c2c(N[C@H]3CCN(C)C3)sc3c2ccc(=O)n3-c2ccccc2)c1
< 2 µM	Cc1cccc(C(=O)c2c(NC(=O)N3CCC[C@@H]3CO)sc3c2ccc(=O)n3-c2ccccc2)c1
< 2 µM	Nc1sc2c(ccc(=O)n2-c2ccccc2)c1C(=O)c1ccc(C(F)(F)F)cc1
< 2 µM	Nc1sc2c(ccc(=O)n2-c2ccccc2)c1C(=O)c1ccc(OC(F)F)cc1
< 2 µM	CC(=O)Nc1sc2c(ccc(=O)n2-c2ccccc2)c1C(=O)c1ccc(F)c(C)c1
< 2 µM	Nc1sc2c(ccc(=O)n2-c2cccnc2)c1C(=O)c1ccccc1
< 2 µM	Cc1cccc(C(=O)c2c(C#N)sc3c2ccc(=O)n3-c2ccccc2)c1
< 2 µM	CCOC(=O)c1sc2c(ccc(=O)n2-c2ccccc2)c1C(=O)c1cccc(C)c1
< 2 µM	Cc1cc(C(=O)c2c(N)sc3c2ccc(=O)n3-c2ccc(F)cc2)ccc1F
< 2 µM	Cc1cccc(C(=O)c2c(NC3CCNCC3)sc3c2ccc(=O)n3-c2ccccc2)c1
< 2 µM	N#Cc1sc2c(ccc(=O)n2-c2ccccc2Cl)c1C(=O)c1ccccc1
< 2 µM	CCOC(=O)c1sc2c(ccc(=O)n2-c2ccccc2)c1C(=O)c1ccc(F)c(C)c1
< 2 µM	Cc1cccc(C(=O)c2c(N3CCCCC3)sc3c2ccc(=O)n3-c2ccccc2)c1
< 2 µM	Nc1sc2c(ccc(=O)n2-c2ccccc2)c1C(=O)c1ccc(OC(F)(F)F)cc1

IC50	SMILES
< 2 µM	O=C(c1ccccc1)c1c(NC2CNC2)sc2c1ccc(=O)n2-c1c(F)cccc1F
< 2 µM	Cc1cccc(C(=O)c2c(C(=O)N3CCC3)sc3c2ccc(=O)n3-c2ccccc2)c1
< 2 µM	Cc1cccc(C(=O)c2c(NC3CCN(C)CC3)sc3c2ccc(=O)n3-c2ccccc2)c1
< 2 µM	CC(=O)Nc1sc2c(ccc(=O)n2-c2ccccc2)c1C(=O)c1ccc(F)c(Cl)c1
< 2 µM	CC(=O)Nc1sc2c(ccc(=O)n2-c2ccccc2F)c1C(=O)c1ccccc1
< 2 µM	CCOc1ccc(C(=O)c2c(N)sc3c2ccc(=O)n3-c2ccccc2)cc1C
< 2 µM	Nc1sc2c(ccc(=O)n2-c2ccccc2Cl)c1C(=O)c1ccccc1
< 2 µM	Cc1cccc(C(=O)c2c(C(=O)O)sc3c2ccc(=O)n3-c2ccccc2)c1
< 2 µM	Cc1cc(C(=O)c2c(C(N)=O)sc3c2ccc(=O)n3-c2ccccc2)ccc1F
< 2 µM	Cc1cc(C(=O)c2c([N+](=O)[O-])sc3c2ccc(=O)n3-c2ccccc2Cl)ccc1F
< 2 µM	Cc1cccc(C(=O)c2c(N)sc3c2ccc(=O)n3-c2ccccc2)n1
< 2 µM	Cc1cccc(C(=O)c2c(NC(=O)N(C)C)sc3c2ccc(=O)n3-c2ccccc2)c1
< 2 µM	CC(=O)Nc1sc2c(ccc(=O)n2-c2ccccc2)c1C(=O)c1cccc(C)c1
< 2 µM	Cc1cc(C(=O)c2c(N)sc3c2ccc(=O)n3-c2c(F)cccc2F)ccc1F
< 2 µM	Nc1sc2c(ccc(=O)n2-c2ccccc2)c1C(=O)c1cccc(Br)c1
< 2 µM	N#Cc1ccc(C(=O)c2c(N)sc3c2ccc(=O)n3-c2ccccc2)cc1
< 2 µM	Nc1sc2c(ccc(=O)n2-c2ccccc2)c1C(=O)c1cccc(OC(F)(F)F)c1

From the Kinase Knowledgebase extract (Sharma et al. 2016)
